# Reference: PubChem BioAssay (NCI)
#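 Compound exposure: 48 hours, 5 concentrations, 96-well plates. The concentration for full growth arrest is given as TGI.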
# Experiments:
# Assay in all cases: inhibition of tumour cell growth, NCI panel, 48 h
# 786-0 renal = system: 786-0 renal
# A549 NSCLC = system: A549 NSCLC
# ACHN renal = system: ACHN renal
# CAKI-1 renal = system: CAKI-1 renal
# CCRF-CEM leukemia = system: CCRF-CEM leukemia
# COLO 205 colon = system: COLO 205 colon
# DLD-1 colon = system: DLD-1 colon
# DMS 114 small cell lung = system: DMS 114 small cell lung
# DMS 273 small cell lung = system: DMS 273 small cell lung
# HCT-116 colon = system: HCT-116 colon
# HCT-15 colon = system: HCT-15 colon
# HL-60(TB) leukemia = system: HL-60(TB) leukemia
# HOP-18 NSCLC = system: HOP-18 NSCLC
# HOP-62 NSCLC = system: HOP-62 NSCLC
# HOP-92 NSCLC = system: HOP-92 NSCLC
# HT29 colon = system: HT29 colon
# IGROV1 ovarian = system: IGROV1 ovarian
# KM12 colon = system: KM12 colon
# KM20L2 colon = system: KM20L2 colon
# LOX IMVI melanoma = system: LOX IMVI melanoma
# LXFL 529 NSCLC = system: LXFL 529 NSCLC
# M14 melanoma = system: M14 melanoma
# M19-MEL melanoma = system: M19-MEL melanoma
# MALME-3M melanoma = system: MALME-3M melanoma
# MOLT-4 leukemia = system: MOLT-4 leukemia
# NCI-H23 lung = system: NCI-H23 lung
# NCI-H460 lung = system: NCI-H460 lung
# NCI-H522 lung = system: NCI-H522 lung
# OVCAR-3 ovarian = system: OVCAR-3 ovarian
# OVCAR-4 ovarian = system: OVCAR-4 ovarian
# OVCAR-5 ovarian = system: OVCAR-5 ovarian
# OVCAR-8 ovarian = system: OVCAR-8 ovarian
# RPMI-8226 leukemia = system: RPMI-8226 leukemia
# RXF 393 renal = system: RXF 393 renal
# SF-268 CNS = system: SF-268 CNS
# SF-295 CNS = system: SF-295 CNS
# SF-539 CNS = system: SF-539 CNS
# SK-MEL-2 melanoma = system: SK-MEL-2 melanoma
# SK-MEL-28 melanoma = system: SK-MEL-28 melanoma
# SK-MEL-5 melanoma = system: SK-MEL-5 melanoma
# SK-OV-3 ovarian = system: SK-OV-3 ovarian
# SN12C renal = system: SN12C renal
# SNB-19 CNS = system: SNB-19 CNS
# SNB-75 CNS = system: SNB-75 CNS
# SNB-78 CNS = system: SNB-78 CNS
# SR leukemia = system: SR leukemia
# SW-620 colon = system: SW-620 colon
# TK-10 renal = system: TK-10 renal
# U251 CNS = system: U251 CNS
# UACC-257 melanoma = system: UACC-257 melanoma
# UACC-62 melanoma = system: UACC-62 melanoma
# UO-31 renal = system: UO-31 renal
# A498 renal = system: A498 renal
# BT-549 breast = system: BT-549 breast
# DU-145 prostate = system: DU-145 prostate
# EKVX NSCLC = system: EKVX NSCLC
# HS 578T breast = system: HS 578T breast
# K-562 leukemia = system: K-562 leukemia
# MCF7 breast = system: MCF7 breast
# MDA-MB-231 breast = system: MDA-MB-231 breast
# MDA-MB-435 = system: MDA-MB-435
# MDA-N = system: MDA-N
# NCI-H226 lung = system: NCI-H226 lung
# NCI/ADR-RES ovarian = system: NCI/ADR-RES ovarian
# PC-3 prostate = system: PC-3 prostate
# T-47D breast = system: T-47D breast
compound,measurement,setting,value
CCN1C[C@]2(C)CC[C@H](O)C34C1C(C[C@@H]32)[C@@]1(O)CC[C@H]2C[C@@H]4[C@@H]1[C@H]2O,TGI,786-0 renal,> 100 µM
same,TGI,A549 NSCLC,> 100 µM
same,TGI,ACHN renal,> 100 µM
same,TGI,CAKI-1 renal,> 100 µM
same,TGI,CCRF-CEM leukemia,> 100 µM
same,TGI,COLO 205 colon,> 100 µM
same,TGI,DLD-1 colon,> 100 µM
same,TGI,DMS 114 small cell lung,> 100 µM
same,TGI,DMS 273 small cell lung,> 100 µM
same,TGI,HCT-116 colon,> 100 µM
same,TGI,HCT-15 colon,> 100 µM
same,TGI,HL-60(TB) leukemia,> 100 µM
same,TGI,HOP-18 NSCLC,> 100 µM
same,TGI,HOP-62 NSCLC,> 100 µM
same,TGI,HOP-92 NSCLC,> 100 µM
same,TGI,HT29 colon,> 100 µM
same,TGI,IGROV1 ovarian,> 100 µM
same,TGI,KM12 colon,> 100 µM
same,TGI,KM20L2 colon,> 100 µM
same,TGI,LOX IMVI melanoma,> 100 µM
same,TGI,LXFL 529 NSCLC,> 100 µM
same,TGI,M14 melanoma,> 100 µM
same,TGI,M19-MEL melanoma,> 100 µM
same,TGI,MALME-3M melanoma,> 100 µM
same,TGI,MOLT-4 leukemia,> 100 µM
same,TGI,NCI-H23 lung,> 100 µM
same,TGI,NCI-H460 lung,> 100 µM
same,TGI,NCI-H522 lung,> 100 µM
same,TGI,OVCAR-3 ovarian,> 100 µM
same,TGI,OVCAR-4 ovarian,> 100 µM
same,TGI,OVCAR-5 ovarian,> 100 µM
same,TGI,OVCAR-8 ovarian,> 100 µM
same,TGI,RPMI-8226 leukemia,> 100 µM
same,TGI,RXF 393 renal,> 100 µM
same,TGI,SF-268 CNS,> 100 µM
same,TGI,SF-295 CNS,> 100 µM
same,TGI,SF-539 CNS,> 100 µM
same,TGI,SK-MEL-2 melanoma,> 100 µM
same,TGI,SK-MEL-28 melanoma,> 100 µM
same,TGI,SK-MEL-5 melanoma,> 100 µM
same,TGI,SK-OV-3 ovarian,> 100 µM
same,TGI,SN12C renal,> 100 µM
same,TGI,SNB-19 CNS,> 100 µM
same,TGI,SNB-75 CNS,> 100 µM
same,TGI,SNB-78 CNS,> 100 µM
same,TGI,SR leukemia,> 100 µM
same,TGI,SW-620 colon,> 100 µM
same,TGI,TK-10 renal,> 100 µM
same,TGI,U251 CNS,> 100 µM
same,TGI,UACC-257 melanoma,> 100 µM
same,TGI,UACC-62 melanoma,> 100 µM
same,TGI,UO-31 renal,> 100 µM
O=C(O)CSCCc1ccccc1,TGI,786-0 renal,> 100 µM
same,TGI,A498 renal,> 100 µM
same,TGI,A549 NSCLC,> 100 µM
same,TGI,ACHN renal,> 100 µM
same,TGI,BT-549 breast,> 100 µM
same,TGI,CAKI-1 renal,> 100 µM
same,TGI,COLO 205 colon,> 100 µM
same,TGI,DU-145 prostate,> 100 µM
same,TGI,EKVX NSCLC,> 100 µM
same,TGI,HCT-116 colon,> 100 µM
same,TGI,HCT-15 colon,> 100 µM
same,TGI,HL-60(TB) leukemia,1.98 µM
same,TGI,HOP-62 NSCLC,> 100 µM
same,TGI,HOP-92 NSCLC,> 100 µM
same,TGI,HS 578T breast,> 100 µM
same,TGI,HT29 colon,> 100 µM
same,TGI,IGROV1 ovarian,> 100 µM
same,TGI,K-562 leukemia,> 100 µM
same,TGI,KM12 colon,> 100 µM
same,TGI,LOX IMVI melanoma,> 100 µM
same,TGI,M14 melanoma,> 100 µM
same,TGI,MALME-3M melanoma,> 100 µM
same,TGI,MCF7 breast,> 100 µM
same,TGI,MDA-MB-231 breast,> 100 µM
same,TGI,MDA-MB-435,> 100 µM
same,TGI,MDA-N,> 100 µM
same,TGI,MOLT-4 leukemia,> 100 µM
same,TGI,NCI-H226 lung,> 100 µM
same,TGI,NCI-H23 lung,> 100 µM
same,TGI,NCI-H460 lung,> 100 µM
same,TGI,NCI-H522 lung,> 100 µM
same,TGI,NCI/ADR-RES ovarian,> 100 µM
same,TGI,OVCAR-3 ovarian,> 100 µM
same,TGI,OVCAR-4 ovarian,> 100 µM
same,TGI,OVCAR-5 ovarian,> 100 µM
same,TGI,OVCAR-8 ovarian,> 100 µM
same,TGI,PC-3 prostate,> 100 µM
same,TGI,RPMI-8226 leukemia,> 100 µM
same,TGI,RXF 393 renal,> 100 µM
same,TGI,SF-268 CNS,> 100 µM
same,TGI,SF-295 CNS,> 100 µM
same,TGI,SF-539 CNS,> 100 µM
same,TGI,SK-MEL-2 melanoma,> 100 µM
same,TGI,SK-MEL-28 melanoma,> 100 µM
same,TGI,SK-MEL-5 melanoma,> 100 µM
same,TGI,SK-OV-3 ovarian,> 100 µM
same,TGI,SN12C renal,> 100 µM
same,TGI,SNB-19 CNS,> 100 µM
same,TGI,SNB-75 CNS,> 100 µM
same,TGI,SR leukemia,> 100 µM
same,TGI,SW-620 colon,> 100 µM
same,TGI,T-47D breast,> 100 µM
same,TGI,TK-10 renal,> 100 µM
same,TGI,U251 CNS,> 100 µM
same,TGI,UACC-257 melanoma,> 100 µM
same,TGI,UACC-62 melanoma,> 100 µM
same,TGI,UO-31 renal,> 100 µM
